Measured values from patent publication US9206200B2, “N-linked lactam M1 receptor positive allosteric mogulators” (Merck Sharp & Dohme Corp., priority 2011, dated 2015).
Where two headings read alike, the source gives them in different places.

Biological target: T1, acetylcholine muscarinic M1 receptor (Homo sapiens, UniProt P11229)
T1 construct: expressed in transfected cells; host or cells: CHOnfat cells (CHO cells with an NFAT reporter) expressing hM1, kept under Geneticin selection
T1 sequence (P11229 1-460): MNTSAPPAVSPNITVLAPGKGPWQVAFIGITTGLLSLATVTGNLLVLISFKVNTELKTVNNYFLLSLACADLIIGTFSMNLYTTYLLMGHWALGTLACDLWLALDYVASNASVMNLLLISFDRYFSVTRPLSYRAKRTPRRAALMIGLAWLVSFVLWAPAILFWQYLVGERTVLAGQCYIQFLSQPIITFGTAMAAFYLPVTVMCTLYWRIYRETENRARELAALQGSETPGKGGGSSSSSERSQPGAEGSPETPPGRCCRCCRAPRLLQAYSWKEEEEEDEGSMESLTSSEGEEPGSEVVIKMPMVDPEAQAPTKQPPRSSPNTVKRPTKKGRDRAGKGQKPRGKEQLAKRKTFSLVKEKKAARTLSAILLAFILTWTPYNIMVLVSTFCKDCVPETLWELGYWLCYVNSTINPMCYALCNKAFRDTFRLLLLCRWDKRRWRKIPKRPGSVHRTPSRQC
Test: muscarinic FLIPR assay: intracellular calcium in CHOnfat/hM1 cells, potentiation of EC20 acetylcholine
Assay type: cell-based
Settings: EC20 acetylcholine (3 nM final)
Procedure: The assay studies the effect of one or several concentrations of test compounds on basal or acetylcholine-stimulated Ca^2+ levels using FLIPR.
Compounds are prepared and subjected to a preincubation period of […]. Thereafter, a single EC20 concentration of acetylcholine is added to each well (3 nM final). The intracellular Ca^2+ level of each sample is measured and compared to an acetylcholine control to determine any modulatory activity.
Cells: CHOnfat/hM1, hM2, hM3 or hM4 cells are plated 24 hr before the assay at a density of 18,000 cells/well (100 μL) in a 384 well plate. CHOnfat/hM1 and CHOnfat/hM3 Growth Medium: 90% DMEM (Hi Glucose); 10% HI FBS; 2 mM L-glutamine; 0.1 mM NEAA; Pen-Strep; and 1 mg/ml Geneticin, are added. For M2Gqi5CHOnfat and M4Gqi5CHOnfat cells, an additional 600 ug/ml hygromycin is added.
Equipment: 384 well plate, 120 μl, addition plate; 96-well Whatman 2 ml Uniplate Incubator, 37° C., 5% CO2; Skatron EMBLA-384 Plate Washer; Multimek Pipetting System; Genesis Freedom 200 System; Mosquito System; Temo Nanolitre Pipetting System; and FLIPR^384 Fluorometric Imaging Plate Reader System are used.
Buffers. Assay Buffer: Hanks Balanced Salt Solution, with 20 mM Hepes, 2.5 mM Probenecid (Sigma P-8761) first dissolved in 1 N NaOH, 1% Bovine Serum Albumin (Sigma A-9647). Dye Loading Buffer: Assay Buffer plus 1% Fetal Bovine Serum and Fluo-4AM/Pluronic Acid Mixture. 2 mM Fluo-4AM ester stock in DMSO (Molecular Probes F-14202) Concentration of 2 μM in buffer for a final concentration of 1 μM in Assay. 20% Pluronic Acid Solution stock, with concentration of 0.04% in Buffer, 0.02% in Assay.
65 μL of 2 mM Fluo-4AM are mixed with 130 μL of 20% Pluronic Acid. The resulting solution and 650 μL FBS is added to the assay buffer for a total volume of 65 mL. Positive Controls: 4-Br-A23187: 10 mM in DMSO; final concentration 10 μM. Acetylcholine: 10 mM in water, working stock at both 20 μM and 30 μM in assay buffer, final concentration of 10 μM. This is used to check the maximum stimulation of the CHOK1/hM1 cells. 20 μM (2×) acetylcholine is added in the preincubation part of the assay, and the 30 μM (3×) stock is added in the second part. (EC20)Acetylcholine: 10 mM in water, working stock of 9 nM (3×), and final concentration in assay is 3 nM. This is used after the preincubation with test compounds. Addition of the EC20 Acetylcholine to each well with a test compound will ascertain any modulator activity. 24 wells contain 3 nM Acetylcholine alone as a control.
Determining Activity of Putative Compounds:
Screening Plate Compounds are titrated in 96-well plates (columns 2-11), 100% DMSO, started at a concentration of 15 mM (150× stock concentration), and 3-fold serial dilutions using Genesis Freedom200 System. Four 96-well plates are combined into a 384-well plate using Mosquito Nanolitre Pipetting System by transferring 1 μl of serial diluted compounds to each well, and 1 mM acetylcholine (100× stock concentration) were added as a control. Using Temo, 49 μl assay buffer is added to each well of the 384-well plate right before assay.
In a 96-well Whatman 2 ml Uniplate, 9 nM Acetylcholine (3×) is pipetted into wells corresponding to the screening compounds, and into control wells. The 30 μM acetylcholine control (3×) is added into control wells, and the 3× agonist plate is transferred into a 384 well plate.
Cells are washed three times with 100 μL of buffer, leaving […] of buffer in each well. Using Multimek, 30 μL of Dye Loading Buffer is added into each well and incubated at 37° C., 5% CO2 for up to one hr.
After 60 min, the cells are washed three times with 100 μL of buffer, leaving 30 μL of buffer in each well. The cell plate, screening plate, and agonist addition plates are placed on the platform in the FLIPR and the door closed. A signal test to check background fluorescence and basal fluorescence signal is performed. Laser intensity is adjusted if necessary.

[1] = Table 2, CHOnfat/hM1 cells, FLIPR, read-out: M1 Pot.
[2] = Table 1, CHOnfat/hM1 cells, FLIPR, read-out: M1 Pot.

| EC50 [1] | EC50 [2] | Compound | further results |
| --- | --- | --- | --- |
| 0.246 µM | – | O=C1c2cc(CN3CCC(F)(C#CC4CC4)CC3)c3cccnc3c2CN1[C@H]1CCCC[C@@H]1O [Example 132, 5-{[4-(cyclopropylethynyl)-4-fluoropiperidin-1-yl]methyl}-8-[(1S,2S)-2-hydroxycyclohexyl]-8,9-dihydro-7H-pyrrolo[3,4-h]quinolin-7-one] | – |
| – | 0.67 µM | CC1(C)CCN(Cc2cc3c(c4ccccc24)CN(C2CCCCC2O)C3=O)CC1 (centres unmarked) [Example 38, 5-[(4,4-dimethylpiperidin-1-yl)methyl]-2-(2-hydroxycyclohexyl)-1,2-dihydro-3H-benzo[e]isoindol-3-one] | – |
| 0.059 µM | – | CC1c2c(cc(CN3CCN(c4ccccn4)CC3)c3cccnc23)C(=O)N1C1CCCCC1O (centres unmarked) [Example 167, 8-(2-hydroxycyclohexyl)-9-methyl-5-[(4-pyridin-2-ylpiperazin-1-yl)methyl]-8,9-dihydro 7H-pyrrolo[3,4-h]quinolin-7-one] | – |
| – | 0.32 µM | O=C1c2cc(CN3CCCC(F)C3)c3ccccc3c2CN1C1CCCCC1O (centres unmarked) [Example 17, 5-[(3-fluoropiperidin-1-yl)methyl]-2-(2-hydroxycyclohexyl)-1,2-dihydro-3H-benzo[e]isoindol-3-one] | – |
| – | 1.14 µM | O=C1c2cc(CN3CCN(c4ccc5ncsc5c4)CC3)c3ccccc3c2CN1c1ccccc1F [Example 85, 5-{[4-(1,3-benzothiazol-6-yl)piperazin-1-yl]methyl}-2-(2-fluorophenyl)-1,2-dihydro-3H-benzo[e]isoindol-3-one] | – |
| 0.207 µM | – | O=C1c2cc(CN3CCC(F)(Cc4ccccc4)CC3)c3cccnc3c2CN1C1CCCCC1O (centres unmarked) [Example 134, 5-[(4-benzyl-4-fluoropiperidin-1-yl)methyl]-8-(2-hydroxycyclohexyl)-8,9-dihydro-7H-pyrrolo[3,4-h]quinolin-7-one] | – |
| – | 3.27 µM | O=C1c2cc(CN3CCN(c4cc5ccccc5cn4)CC3)c3ccccc3c2CN1c1ccccc1F [Example 84, 2-(2-fluorophenyl)-5-[(4-isoquinolin-3-ylpiperazin-1-yl)methyl]-1,2-dihydro-3H-benzo[e]isoindol-3-one] | – |
| 0.021 µM | – | O=C1c2cc(CN3CCC(F)(F)CC3)c3cccnc3c2CN1C1CCCCC1O (centres unmarked) [Example 116, 5-[(4,4-difluoropiperidin-1-yl)methyl]-8-(2-hydroxycyclohexyl)-8,9-dihydro-7H-pyrrolo[3,4-h]quinolin-7-one] | – |
| 0.044 µM | – | CC1c2c(cc(CN3CCC(F)(C#N)CC3)c3cccnc23)C(=O)N1C1CCCCC1O (single isomer, unassigned) [Example 119, 4-fluoro-1-{[8-(2-hydroxycyclohexyl)-9-methyl-7-oxo-8,9-dihydro-7H-pyrrolo[3,4-h]quinolin-5-yl]methyl}piperidine-4-carbonitrile] | – |
| 0.43 µM | – | CC1(C)CCN(Cc2cc3c(c4ncccc24)CN(C2CCCCC2O)C3=O)CC1 (centres unmarked) [Example 100, 5-[(4,4-dimethylpiperidin-1-yl)methyl]-8-(2-hydroxycyclohexyl)-8,9-dihydro-7H-pyrrolo[3,4-h]quinolin-7-one] | – |
| – | 0.049 µM | COc1ccc(N2CCN(Cc3cc4c(c5ccccc35)CN([C@H]3CCCC[C@@H]3O)C4=O)CC2)cc1 [Example 69, 2-[(1S,2S)-2-hydroxycyclohexyl]-5-{[4-(4-methoxyphenyl)piperazin-1-yl]methyl}-1,2-dihydro-3H-benzo[e]isoindol-3-one] | – |
| 0.0099 µM | – | CCC1c2c(cc(CN3CCC(F)(F)CC3)c3cccnc23)C(=O)N1[C@@H]1CCCC[C@@H]1O (stereo partly drawn) [Example 105, 5-[(4,4-difluoropiperidin-1-yl)methyl]-9-ethyl-8-[(1R,2S)-2-hydroxycyclohexyl]-8,9-dihydro-7H-pyrrolo[3,4-h]quinolin-7-one] | – |
| – | – | C=CC1(F)CCN(Cc2cc3c(c4ncccc24)CN([C@H]2CCCC[C@@H]2O)C3=O)CC1 [Example 9, 5-[(4-Ethenyl-4-fluoropiperidin-1-yl)methyl]-8-[(1S,2S)-2-hydroxycyclohexyl]-8,9-dihydro-7H-pyrrolo[3,4-h]quinolin-7-one] | EC50 (Table 3, inflection point calculated from the FLIPR values, read-out: IP Value): 0.42 µM |
| – | 0.037 µM | O=C1c2cc(CN3CCN(c4cccnc4)CC3)c3ccccc3c2CN1[C@H]1CCCC[C@@H]1O [Example 76, 2-[(1S,2S)-2-hydroxycyclohexyl]-5-[(4-pyridin-3-ylpiperazin-1-yl)methyl]-1,2-dihydro-3H-benzo[e]isoindol-3-one] | – |
| – | 0.496 µM | Cn1cc(N2CCN(Cc3cc4c(c5ccccc35)CN([C@@H]3CCCC[C@H]3O)C4=O)CC2)cn1 [Example 81, 2-[(1R,2R)-2-hydroxycyclohexyl]-5-{[4-(1-methyl-1H-pyrazol-4-yl)piperazin-1-yl]methyl}-1,2-dihydro-3H-benzo[e]isoindol-3-one] | – |

| Compound | EC50 [1] | EC50 [2] | further results |
| --- | --- | --- | --- |
| 1-({8-[(1S,2S)-2-hydroxycyclohexyl]-7-oxo-8,9-dihydro-7H-pyrrolo[3,4-h]quinolin-5-yl}methyl)-4-(6-methoxypyridin-2-yl)piperidine-4-carbonitrile [Example 156] | 0.057 µM | – | – |
| N#CC1(c2ccccn2)CCN(Cc2cc3c(c4ccccc24)CN([C@@H]2CCCC[C@H]2O)C3=O)CC1 [Example 46, 1-({2-[(1R,2R)-2-hydroxycyclohexyl]-3-oxo-2,3-dihydro-1H-benzo[e]isoindol-5-yl}methyl)-4-pyridin-2-ylpiperidine-4-carbonitrile] | – | 0.539 µM | – |
| O=C1c2cc(CN3CCC(O)(c4ccncc4)CC3)c3ccccc3c2CN1C1CCCCC1O (centres unmarked) [Example 43, 2-(2-hydroxycyclohexyl)-5-[(4-hydroxy-4-pyridin-4-ylpiperidin-1-yl)methyl]-1,2-dihydro-3H-benzo[e]isoindol-3-one] | – | 0.83 µM | – |
| N#CC1(c2ccccn2)CCN(Cc2cc3c(c4ccccc24)CN([C@@H]2CCCC[C@@H]2O)C3=O)CC1 [Example 47, 1-({2-[(1R,2S)-2-hydroxycyclohexyl]-3-oxo-2,3-dihydro-1H-benzo[e]isoindol-5-yl}methyl)-4-pyridin-2-ylpiperidine-4-carbonitrile] | – | 0.147 µM | – |
| Cc1ccnc(C2(C#N)CCN(Cc3cc4c(c5ncccc35)CN(C3CCCCC3O)C4=O)CC2)c1 (centres unmarked) [Example 148, 1-{[8-(2-hydroxycyclohexyl)-7-oxo-8,9-dihydro-7H-pyrrolo[3,4-h]quinolin-5-yl]methyl}-4-(4-methylpyridin-2-yl)piperidine-4-carbonitrile] | 0.0047 µM | – | – |
